Laboratory results reported in US7951548B2, “IL-13 production inhibitor” (Takeda Pharmaceutical Company Limited, priority 2005, dated 2011).

Key:
Assay type in all cases: cell-based
[1] = tested on: other receptor expression cells; assay: cAMP production inhibitory activity on other receptor expression cells
[2] = biological target: T1, GPR34 (Homo sapiens, UniProt Q9UPC5); assay: Intracellular cAMP production inhibitory activity on GPR34-expressed CHO cells (forskolin stimulated); conditions: phosphatidylserine in a higher concentration
T1 construct: expressed in transfected cells
T1 sequence (Q9UPC5 whole entry): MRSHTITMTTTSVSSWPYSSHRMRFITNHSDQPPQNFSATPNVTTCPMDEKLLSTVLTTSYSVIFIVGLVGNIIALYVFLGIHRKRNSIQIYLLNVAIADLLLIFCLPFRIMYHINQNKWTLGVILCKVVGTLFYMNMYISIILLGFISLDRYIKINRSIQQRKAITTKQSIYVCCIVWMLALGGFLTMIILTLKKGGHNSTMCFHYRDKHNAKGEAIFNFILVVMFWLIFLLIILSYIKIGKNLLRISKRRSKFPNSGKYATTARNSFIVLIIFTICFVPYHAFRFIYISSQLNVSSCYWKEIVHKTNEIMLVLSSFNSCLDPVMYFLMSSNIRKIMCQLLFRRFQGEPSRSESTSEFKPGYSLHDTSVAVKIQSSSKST
Method: The GPR34-expressed CHO cells prepared in (1-2) described above and selected in (1-3) described above were plated on a 24-well plate in 6×10^4 cells/well followed by incubation for 48 hours. The cells were washed with αMEM medium (pH 7.5) containing 0.2 mM 3-isobutylmethylxanthine, 0.05% BSA and 20 mM HEPES (hereinafter αMEM medium (pH 7.5) containing 0.2 mM 3-isobutylmethylxanthine, 0.05% BSA and 20 mM HEPES is referred to as the reaction buffer). Thereafter, 0.5 mL of the reaction buffer was added and the mixture was kept warm for 30 minutes in an incubator. The reaction buffer was removed and 0.25 mL of fresh reaction buffer was replenished to the cells. Then, 0.25 mL of the reaction buffer containing a sample and 2 μM forskolin was added to the cells, followed by reacting at 37° C. for 30 minutes. The reaction solution was removed and 0.5 mL of the cell lysis solution attached to cAMP EIA kit (Applied Biosystems) to extract cAMP in the cells. The cAMP level in the extract was quantified using the same kit. Based on this measurement data, the cAMP production inhibitory activity was calculated based on the equation shown below and expressed in terms of percentage to the control group. […]

[3] = tested on: mouse bone marrow-derived mast cells; assay: MAPK activation: phosphorylation of ERK1/2 in mouse bone marrow-derived mast cells (BMMC); conditions: PTX 0.1 μg/mL, 4 hours before assay
Method: BMMC was established by collecting bone marrow fluid from the femur of male BALB/c mouse (Japan SLC), rinsing in RPMI1640 (Nikken Bio Medical Laboratory) and then incubating in a medium (RPMI1640, 50% WEHI-3 culture supernatant, 10% FBS (GIBCO), penicillin/streptomycin (BIOWHITTAKER), Non-Essential amino acids (GIBCO)) for 4 weeks. The cells were incubated in a CO2 incubator immediately before assay. Pertussis toxin (hereinafter PTX) was added to the cells in a final concentration of 0.1 μg/mL 4 hours before assay. BMMC was washed in ice-chilled assay buffer (Tyrode Buffer, 0.01% fatty acid free-BSA (SIGMA), 1 mM CaCl2, 1 mM MgCl2), and suspended in 2×10^6 cells/ml. The suspension was dispensed in a 1.5 mL tube followed by preincubation for 15 minutes at 37° C. The lysoPS solution and A23187 solution (Wako Pure Chemicals) as a positive control were added in equimolar amounts. After incubation at 37° C., the reaction was terminated by quenching. The cells were precipitated by centrifugation and the assay buffer was aspirated. After washing in PBS, 1×SDS sample buffer/DTT was added to the cells to lyse the cells. After ultrasonication for 15 seconds, the sample was heated at 95° C. for 5 minutes followed by quenching.
(§1) Detection by SDS-PAGE and western blotting were performed as follows. After separation using 10% Bis-Tris gel (Invitrogen), the gel was transferred to Immuno-Blot PVDF Membrane (BIO-RAD). The membrane was blocked with Block Ace (Dai-Nippon Pharmaceutical) and incubated at 4° C. overnight with a primary antibody (Phospho-p42/p44 MAP Kinase (Thr202/Thr204) Antibody (CST) or p42/p44 MAP Kinase Antibody (CST)) and further incubated at room temperature for an hour using a secondary antibody (Anti-rabbit IgG (CST)). The membrane after the antibody reaction was visualized by chemiluminescence using ECL PLUS (Amersham Biosciences). Detection and image analysis were performed using LAS1000 (FUJI FILM).

[4] = biological target: T1, GPR34; assay: MAPK activation: phosphorylation of ERK1/2 in human GPR34-expressed CHO cells (western blotting); conditions: PTX 0.1 μg/mL, 20 hours before the assay
Method: The cells were prepared as described below. Human GPR34-expressed CHO cells were scraped off with 0.05% trypsin-EDTA (GIBCO) and suspended in a medium (MEM-α (GIBCO), supplemented with 10% FBS (GIBCO) and penicillin/streptomycin (BIOWHITTAKER)). After centrifugation, the cells precipitated were suspended in the medium in 2×10^5 cells/ml and a 1 mL aliquot was plated on a 35 mm cell culture dish. After incubation overnight in a CO2 incubator, the medium was aspirated and washed in PBS. Then 1 mL of serum-free medium (MEM-α (GIBCO), supplemented with penicillin/streptomycin (BIOWHITTAKER)) and incubation was performed in a CO2 incubator. Pertussis toxin (hereinafter PTX) was added in a final concentration of 0.1 μg/mL 20 hours before the assay.
The cells were activated as follows. The medium was aspirated and washed in PBS. Thereafter, 500 μL of assay buffer (HBSS (GIBCO), 10 mM HEPES (Dojin Chemical Laboratory)) was added to perform preincubation for 15 minutes at 37° C. The lysoPS solution and […] of PECGF ([…] cell growth factor) solution as a positive control were added. After the mixture was incubated at 37° C., the reaction was terminated by quenching. The assay buffer was aspirated and washed in PBS. Then, 1×SDS sample buffer/DTT was added to the cells to recover the cells. After ultrasonication for 15 seconds, heating at 95° C. for 5 minutes was followed by quenching.
as §1, with “(Bio-Rad).” for “(BIO-RAD).”, “room temperature for an hour” for “4° C. overnight”, “Detection and image analysis were performed using LAS1000 (FUJI FILM).” left out

[5] = tested on: rat peritoneal mast cells; assay: MAPK activation: phosphorylation of ERK1/2 in rat peritoneal mast cells (RPMC); conditions: PTX 0.1 μg/mL, 4 hours before assay
Method: Pertussis toxin (hereinafter PTX) was added to the cells in a final concentration of 0.1 μg/mL 4 hours before assay. RPMC was washed in ice-chilled assay buffer (Tyrode Buffer, 0.01% fatty acid free-BSA (SIGMA), 1 mM CaCl2, 1 mM MgCl2), and suspended in 2×10^6 cells/ml. The suspension was dispensed in a 1.5 mL tube followed by preincubation for 15 minutes at 37° C. The lysoPS solution was added thereto in an equimolar amount. After incubation at 37° C., the reaction was terminated by quenching. The cells were precipitated by centrifugation and the assay buffer was aspirated. After washing in PBS, 1×SDS sample buffer/DTT was added to the cells to lyse the cells. After ultrasonication for 15 seconds, heating at 95° C. for 5 minutes was followed by quenching.
as §1, with “hour with” for “hour using”, “Biosciences). […]” for “Biosciences). Detection and image analysis were performed using LAS1000 (FUJI FILM).”

| cAMP production inhibitory activity [2] | Substance | cAMP production inhibitory action on other receptor expression cells [1] | effect of PTX pretreatment on phosphorylation of ERK1/2 by lysoPS [3] | effect of PTX pretreatment on phosphorylation of ERK1/2 by lysoPS [4] | effect of PTX pretreatment on phosphorylation of ERK1/2 by lysoPS [5] |
| --- | --- | --- | --- | --- | --- |
| marked activities | phosphatidylserine | not noted | – | – | – |
| – | Pertussis toxin [PTX] | – | attenuated to the level below the detection limit | attenuated to the level below the detection limit | attenuated to the level below the detection limit |
